According to patent publication US5856356A, “Use of strontium salts and pharmaceutical compositions thereof for the treatment of arthrosis” (Adir et Compagnie, priority 1996, dated 1999):

System: human chondrocytes

[Cl-].[Cl-].[Sr+2] [SrCl2, strontium chloride]
production of sulfated glycoseaminoglycans (24 hours, concentration printed "210^-3 M", control 43 871 ± 1124, p < 0.05): 52 839 c.p.m./10^6 cells | effect on the synthesis of proteoglycans / stimulation of the chondroformation (in words) (human chondrocytes, same effects as compound A): exhibits the same effects
